Results taken from patent US7498406B2, “Substantially cell membrane impermeable compound and use thereof” (priority 1999, dated 2009).

Tests used:
[1] = test system: BVSM; experiment: Proliferation of cultured cells, 72 hr; format: cell-based, bovine; conditions: 5% BCS, 0 to 1 mM
Method: FIG. 19. Effect of GSAO on proliferation of non-endothelial cells. 15,000 BxPC-3 (part A), HT1080 (part B), 3T3 (part C) or BVSM (part D) cells per well were seeded into gelatinised 24-well culture plates and allowed to attach for 24 hr. The media was then replaced with DMEM containing 0 to 1 mM GSAO or GSAA and either 5% BCS (part D) or 5% FCS (parts A, B and C). Cells were cultured for 72 hr and then dispersed and counted. The dotted lines indicate the cell number in control wells containing DMEM and 2% BCS (part D) or 2% FCS (parts A, B and C) which represented no to limited proliferation. The data points and errors represent the mean and range of duplicate wells.
(§1) BCE (Folkman et al. 1979), BAE, BxPC-3 (ATCC, Bethesda, Md.), HT1080 (Jiang et al., 1999), 3T3 (ATCC, Bethesda, Md.) and BVSM (Hogg et al., 1997) cells were harvested and cultured as indicated. […] Cells were cultured for 0 to 72 hr in 10% CO2 at 37° C. then dispersed in trypsin/EDTA (GibcoBRL, Granc Island, N.Y.), resuspended in Coulter balanced electrolyte solution and counted with a Z1 Coulter counter (Coulter Corp., Miami, Fla.) in all experiments there were two control wells containing DMEM with 1% GPS and either 5% BCS for BCE cells, 2% BCS for BAE and BVSM cells, or 2% FCS for BxPC-3, HT1080 and 3T3 cells. […]

[2] = test system: BCE; experiment: Viability of cultured cells, 72 hr; format: cell-based, bovine
Method: FIG. 18. Inhibition of proliferation and reduction in viability of BCE cells by GSAO. 15,000 (part A and B) or 50,000 (part C and D) BCE cells per well were seeded into gelatinised 24-well culture plates and allowed to attach for 24 hr (part A, B and D) or 72 hr (part C). The media was then replaced with DMEM containing 5% BCS and 0 to 1 mM GSAO or GSAA and either 1 ng per mL FGF-2 (part A) or 10 ng per mL VEGF (part B). In part D, the media was replaced with DMEM containing 5% BCS and 1 ng per mL FGF-2 and either 10 μM GSAO or GSAA. In part C, the media was replaced with DMEM containing 5% BCS and 0 to 1 mM GSAO or GSAA. Cells were cultured for 72 hr in parts A, B and C or for discrete times up to 48 hr in part D and then dispersed and counted. The dotted line in parts A, B and C indicate the cell number in control wells containing DMEM and 5% BCS which represented no to limited proliferation. The dotted line in part D represents no change in cell number over the 48 hr. The data points and errors represent the mean and range of duplicate wells.
as §1, with “indicated. Cells (0.5 mL of 30,000 or 100,000 cells per mL) were seeded into gelatinized 24-well culture plates (Corning Costar, Corning, N.Y.) in Dulbecco's Modified Eagle's Medium (DMEM, JHR Bioscience, Lenexa, Kans.) containing 10% fetal calf serum (FCS, Intergen Comp., Purchase, N.Y.) and 1% Glutamine Pen-Strep (GPS, Irvine Scientific, Santa Ana, Va.) and allowed to attach for 24 hr in 10% CO2 at 37° C.” for “indicated.”

[3] = format: in vivo, SCID mice; conditions: for macroscopic differences to untreated mice / morphological changes in heart, lungs, liver, kidneys, spleen: 10 mg per kg per day; for macroscopic differences to untreated mice: end of experiment; for morphological changes in heart, lungs, liver, kidneys, spleen: light microscopy (not shown); for adverse side effects of administration: 2 or 10 mg per kg per day, subcutaneous
Method: FIG. 24. […] The data points and errors represent the mean and SE of the animal weights for the experiment described in FIG. 23.
Female 7 to 9 week old SCID or C57Bl6/J mice were used (Massachusetts General Hospital, Boston, Mass.). Mice were held in groups of 3 to 5 at a 12 hour day and night cycle and were fed with animal chow and water ad libidum. SCID mice were anaesthetised by inhalation of isoflurane, the dorsal skin shaved and cleaned with ethanol, and a suspension of 2.5×10^6 BxPC-3 or HT1080 cells in 0.2 mL of DMEM was injected subcutaneously in the proximal midline. C57Bl6/J mice with Lewis lung carcinomas of 0.6-1.2 cm^3 volumes were sacrificed and the skin overlying the tumour was cleaned with betadine and ethanol. Tumour tissue was excised under aseptic conditions and a suspension of tumour cells in 0.9% saline was made by passage of tumour tissue through a sieve and a series of sequentially smaller 22- to 30-gauge hypodermic needles. C57Bl6/J mice were anaesthetised and prepared as for SCID mice and a suspension of Lewis lung carcinoma cells in 0.2 mL of saline was injected subcutaneously in the proximal midline. Tumours were allowed to establish and grow to a size of ˜0.1 cm^3 after which they were randomised into two groups. The tumours were measured in two diameters and tumour volume was calculated using the relationship, tumour volume=a×b^2×0.52, where a is the longest and b the shortest diameters in cm. Animals were treated with either GSAA or GSAO at doses of 2 or 10 mg per kg per day in 0.2 mL of PBS containing 100 mM glycine. The compounds were administered subcutaneously at a site distant from the tumour. Tumour volume and animal weight was measured every 3 days. The tumours were excised and weighed when the animals were sacrificed.
At the conclusion of the experiment described in FIG. 23B the mice from both treatment groups were examined. […] The heart, lungs, liver, kidneys, and spleen of the GSAA or GSAO-treated and untreated mice were fixed in formaldehyde, embedded in paraffin, sectioned, stained with haematoxylin and eosin and examined by light microscopy.

Row | SMILES | Proliferation IC50 [1] | effect on viability of BCE cells ([2]; 0 to 1 mM) | macroscopic differences to untreated mice [3] | morphological changes in heart, lungs, liver, kidneys, spleen [3] | adverse side effects of administration [3] | time dependence of the decrease in viability ([2]; 10 μM, 1 ng per mL FGF-2, up to 48 hr) | IC50 ([2]; 5% BCS + 10 ng/mL VEGF, >90% confluent, 72 hr) [µM]
1 | N[C@@H](CCC(=O)N[C@@H](CSCC(=O)Nc1ccc([As](=O)(O)O)cc1)C(=O)NCC(=O)O)C(=O)O [GSAA, 4-(N-(S-glutathionylacetyl)amino)phenylarsonic acid, reference compound] | no significant effect | no significant effect on viability | no apparent macroscopic differences | no obvious morphological changes | no apparent adverse side effects |  | 
2 | NC(CCC(=O)NC(CSCC(=O)Nc1ccc([As]=O)cc1)C(=O)NCC(=O)O)C(=O)O (centres unmarked) [GSAO, 4-(N-(S-glutathionylacetyl)amino)-phenylarsenoxide] | did not affect the proliferation |  | no apparent macroscopic differences | no obvious morphological changes | no apparent adverse side effects | no decrease in viability after 8 hours | ~3
